Assay results from ChEMBL document CHEMBL1146912, “Synthesis, radiolabeling, and in vivo evaluation of an 18F-labeled isatin analog for imaging caspase-3 activation in apoptosis” (Bioorg Med Chem Lett, 2006).

Tests used:
[1] = target: Caspase-8 (Homo sapiens, UniProt Q14790); test: Inhibition of human recombinant caspase 8
[2] = target: T1, Caspase-1 (Homo sapiens, UniProt P29466); test: Inhibition of human recombinant caspase 1
T1 sequence (P29466 whole entry): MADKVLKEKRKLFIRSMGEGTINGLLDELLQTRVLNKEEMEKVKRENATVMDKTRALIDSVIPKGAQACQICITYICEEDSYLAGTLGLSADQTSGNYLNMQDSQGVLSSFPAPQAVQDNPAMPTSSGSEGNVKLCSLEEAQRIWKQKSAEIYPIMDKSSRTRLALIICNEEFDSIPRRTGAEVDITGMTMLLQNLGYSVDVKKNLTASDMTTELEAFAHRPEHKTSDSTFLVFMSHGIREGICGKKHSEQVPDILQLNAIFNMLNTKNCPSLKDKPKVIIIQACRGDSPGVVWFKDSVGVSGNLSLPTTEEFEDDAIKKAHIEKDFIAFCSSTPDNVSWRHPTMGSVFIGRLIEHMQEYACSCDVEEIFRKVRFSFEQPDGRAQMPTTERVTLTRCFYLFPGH

[3] = target: T2, Caspase-6 (Homo sapiens, UniProt P55212); test: Inhibition of human recombinant caspase 6
T2 sequence (P55212 whole entry): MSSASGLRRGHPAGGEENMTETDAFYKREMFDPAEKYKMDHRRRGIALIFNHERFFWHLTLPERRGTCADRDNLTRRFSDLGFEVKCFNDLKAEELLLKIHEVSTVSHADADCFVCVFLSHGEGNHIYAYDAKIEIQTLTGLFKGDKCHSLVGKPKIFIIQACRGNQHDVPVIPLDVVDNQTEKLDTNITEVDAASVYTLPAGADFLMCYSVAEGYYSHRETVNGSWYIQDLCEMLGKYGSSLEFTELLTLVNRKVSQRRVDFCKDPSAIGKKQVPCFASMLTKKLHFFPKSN

[4] = target: T3, Caspase-3 (Homo sapiens, UniProt P42574); test: Inhibition of human recombinant caspase 3
T3 sequence (P42574 whole entry): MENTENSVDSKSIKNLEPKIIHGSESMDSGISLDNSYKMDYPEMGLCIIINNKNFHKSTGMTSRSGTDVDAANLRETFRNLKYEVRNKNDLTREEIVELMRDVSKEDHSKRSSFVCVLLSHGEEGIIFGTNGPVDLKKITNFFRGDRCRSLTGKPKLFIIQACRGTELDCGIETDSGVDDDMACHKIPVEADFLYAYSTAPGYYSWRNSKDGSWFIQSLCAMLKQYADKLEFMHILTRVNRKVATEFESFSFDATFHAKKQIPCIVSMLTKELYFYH

[5] = organism: Rattus norvegicus; test: Increase in uptake in liver of cycloheximide-treated Sprague-Dawley rat relative to control after 1 hr; assay type: ADME, organism-based; details: in vivo
[6] = organism: Rattus norvegicus; test: Increase in uptake in spleen of cycloheximide-treated Sprague-Dawley rat relative to control after 1 hr; assay type: ADME, organism-based; details: in vivo
[7] = organism: Rattus norvegicus; test: Effect on uptake in fat of cycloheximide-treated Sprague-Dawley rat relative to control after 1 hr; assay type: ADME, organism-based, Adipose tissue; details: in vivo

Chain of Caspase-8 (Q14790 217-374 limits assumed): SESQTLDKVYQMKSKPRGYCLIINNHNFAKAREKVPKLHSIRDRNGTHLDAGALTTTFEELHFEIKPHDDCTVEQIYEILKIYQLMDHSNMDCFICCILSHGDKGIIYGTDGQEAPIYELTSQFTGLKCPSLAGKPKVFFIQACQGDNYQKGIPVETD
Chain of Caspase-8 (Q14790 385-479 limits assumed): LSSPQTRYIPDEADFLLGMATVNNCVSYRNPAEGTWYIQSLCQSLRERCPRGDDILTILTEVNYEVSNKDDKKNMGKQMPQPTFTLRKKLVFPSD

Row | IC50 [1] [µM] | IC50 [2] [µM] | IC50 [3] [µM] | IC50 [4] [µM] | Activity [5] [%] | Activity [6] [%] | Activity [7] | SMILES
1 | > 50 | > 50 | 3.7 | 0.0097 |  |  |  | O=C1C(=O)N(Cc2ccc(OCCF)cc2)c2ccc(S(=O)(=O)N3CCC[C@H]3COc3ccccc3)cc21
2 |  |  |  |  | 94 | 184 | Not Active | O=C1C(=O)N(Cc2ccc(OCC[18F])cc2)c2ccc(S(=O)(=O)N3CCC[C@H]3COc3ccccc3)cc21
